PubChem BioAssay (NCI)
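Each compound was tested at five concentrations against cells in 96-well plates for 48 hours. GI50 is the concentration that inhibits growth by half. TGI denotes the concentration required for complete inhibition of growth.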

Tests used:
Assay in all cases: DTP human tumour cell line panel, 48 h
[1] = system: HCT-15 colon
[2] = system: KM12 colon
[3] = system: HCC-2998 colon
[4] = system: CCRF-CEM leukemia
[5] = system: MALME-3M melanoma
[6] = system: SF-295 CNS
[7] = system: XF 498 CNS
[8] = system: NCI-H460 lung
[9] = system: EKVX NSCLC
[10] = system: DLD-1 colon
[11] = system: KM20L2 colon
[12] = system: DMS 273 small cell lung

Structure (SMILES) | TGI [1] [µM] | TGI [2] [µM] | TGI [3] [µM] | TGI [4] [µM] | TGI [5] [µM] | TGI [6] [µM] | TGI [7] [µM] | TGI [8] [µM] | TGI [9] [µM] | TGI [10] [µM] | TGI [11] [µM] | TGI [12] [µM] | GI50 [1] [µM] | GI50 [2] [µM] | GI50 [3] [µM] | GI50 [4] [µM] | GI50 [5] [µM] | GI50 [6] [µM] | GI50 [8] [µM] | GI50 [9] [µM]
CC(=O)/C(=C\c1ccccc1O)C(=O)Nc1ccccc1C | 45.3 | 41.5 | 29.3 | 84.9 | 47.7 | 76.2 | 28.1 | > 100 | 96.8 | 79.1 |  |  |  |  |  |  |  |  |  | 
O=C(c1ccccc1)c1c(CC(O)c2ccncc2)n(C(=O)c2ccccc2)c2ccccc12 (configuration not stated) | 38.7 | 37.8 | 31.5 | 61.9 | 34 | 26 |  | 49.9 |  | > 100 | 34 | 37.1 |  |  |  |  |  |  |  | 
COc1cc(C2(C)SCCCS2)cc(OC)c1OC | > 100 | > 100 | > 100 | > 100 | > 100 | > 100 |  | > 100 | > 100 | > 100 | > 100 | > 100 |  |  |  |  |  |  |  | 
COc1ccc(OC(=O)CC2Cc3cc(OC)c(OC)c(OC)c3-c3ccc(SC)c(=O)cc32)cc1 (configuration not stated) | > 37.7 | 19.6 | 0.503 | 10.1 | > 100 |  | 7.8 | 4.99 | > 100 | > 34.6 |  | > 100 |  |  |  |  |  |  |  | 
CCCCNc1nc(NC2OCC(OC(C)=O)C(OC(C)=O)C2OC(C)=O)c(N=O)c(=O)n1C (configuration not stated) | > 10 | > 10 | > 10 | > 10 | > 10 | > 10 |  | > 10 | > 10 |  |  |  |  |  |  |  |  |  |  | 
O=C(CN1N=C(c2ccc(F)cc2)CCC1=O)Nc1nc2ccccc2s1 | > 100 | > 100 | > 100 | 0.665 | 1.56 | > 100 |  | > 100 | > 100 |  |  |  | 41.6 | > 25.9 | > 100 | 0.249 | 0.621 | > 100 | > 51.5 | 2.82
C[C@@H]1Cc2cc(O)ccc2[C@H]2CC[C@]3(C)/C(=C/COCCN(C)C)CC[C@H]3[C@H]12 (tested in a mixture with another compound) | 0.55 | 0.895 | 1.65 | 0.416 | 0.865 | 0.474 |  | 0.208 | 0.472 |  |  |  | 0.205 | 0.309 | 0.448 | 0.159 | 0.324 | 0.175 | 0.0704 | 0.145
O=C(NNS(=O)(=O)c1ccc(Cl)cc1Cl)c1cccnc1Nc1ccc(Cl)cc1 | > 100 | 28.6 | 29 | > 100 | 34.9 | 77.7 |  | > 100 | > 100 |  |  |  | 33.4 | 13.8 | 13.6 | 6.62 | 11.1 | 30.2 | 35.7 | 26.1
COc1ccc(C(=O)/C=C/c2ccc(OCC#N)cc2)cc1 | 54.7 | 32.6 | 31.8 | 81 | 43.7 | > 100 |  | 81.1 | > 100 |  |  |  |  |  |  |  |  |  |  | 
CSc1ccc(C2=NN(C(C)=O)C(c3ccc(-c4ccc(Cl)cc4)o3)C2)cc1 (configuration not stated) | > 100 | > 100 | > 100 | > 100 | > 100 | > 100 |  | > 100 | > 100 |  |  |  | 23.2 | 24 | 47.1 | 44.2 | 43.2 | 34 | 40 | 50.2
O=C(Nc1ccccc1OC(=O)c1ccccc1)c1ccccc1 | > 100 | 10.9 | > 100 | > 100 | > 100 | 8.03 |  | 15.2 | > 100 |  |  |  | 4.37 | 3.12 | 30.1 | 5.87 | 14.5 | 2.47 | 3.26 | 7.45
NNc1nnc(-c2nnc(NN)o2)o1 | > 10 | > 10 | > 10 | > 10 | > 10 | > 10 |  | > 10 | > 10 |  |  |  |  |  |  |  |  |  |  | 
Cc1ccc(NC(=O)C(=O)C(C(=O)/C=C/c2ccccc2)C2OC(=O)c3ccccc32)c(C)c1 (configuration not stated) | > 100 | > 100 | > 100 | > 100 | > 100 | > 100 | > 100 | > 100 | > 100 | > 100 | > 100 |  |  |  |  |  |  |  |  | 
COc1cccc(Oc2ccccc2NC(=O)CNC(=O)c2cccc3ccccc23)c1 | > 25 | 19.6 | > 25 | > 25 | > 25 | > 25 |  | 4.53 | > 25 |  |  |  | 0.129 | 0.19 | 1.25 | 0.36 | 16.9 | 0.111 | 0.298 | 1.28
